Test results from the supplement of paper PMC10307832.

Key:
Experiment in all cases: relative viability (nuclei count vs DMSO), 5 days (fraction); higher = more cells survive
Ricolinostat + AZD7762 = compound: O=C(CCCCCCNC(=O)c1cnc(N(c2ccccc2)c2ccccc2)nc1)NO [Ricolinostat] + NC(=O)Nc1cc(-c2cccc(F)c2)sc1C(=O)N[C@H]1CCCNC1 [AZD7762] (partner 0.2 µM)
Summary of the method: (§1)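 Cells from lung cancer lines were seeded into 1536-well plates and, one day later, dosed by pin tool. Treatments were either a single drug or a fixed dose of an anchor drug with five library-drug doses (not always all listed) in √10 steps. After 5 days, nuclei were stained in a one-step fixation (final 0.05% Triton X-100, 1% formaldehyde, 1 ug/ml Hoechst) and counted on 4× images, and relative viability is the treated-to-vehicle nuclei ratio, as the median of duplicate plates.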

TGX 221 + Luminespib = compound: CC1=CN2C(=O)C=C(N=C2C(=C1)C(C)NC3=CC=CC=C3)N4CCOCC4 [TGX 221] + CCNC(=O)c1noc(-c2cc(C(C)C)c(O)cc2O)c1-c1ccc(CN2CCOCC2)cc1 [Luminespib] (partner 0.01 µM)
Summary of the method: as §1

TGX 221 + Foretinib = compound: CC1=CN2C(=O)C=C(N=C2C(=C1)C(C)NC3=CC=CC=C3)N4CCOCC4 [TGX 221] + COc1cc2c(Oc3ccc(NC(=O)C4(C(=O)Nc5ccc(F)cc5)CC4)cc3F)ccnc2cc1OCCCN1CCOCC1 [Foretinib] (partner 0.25 µM)
Summary of the method: as §1

[1] = compound: C1=CC=C(C(=C1)C2=CC=C(C=C2)C3=CSC4=C3C(=C(C(=O)N4)C#N)O)O + COc1cc2c(Oc3ccc(NC(=O)C4(C(=O)Nc5ccc(F)cc5)CC4)cc3F)ccnc2cc1OCCCN1CCOCC1 [Foretinib] (partner 0.25 µM)
Summary of the method: as §1

Row | Cell Line | relative viability (Ricolinostat + AZD7762; first compound 0.08 µM) | relative viability (Ricolinostat + AZD7762; first compound 0.253 µM) | relative viability (Ricolinostat + AZD7762; first compound 0.8 µM) | relative viability (Ricolinostat + AZD7762; first compound 2.53 µM) | relative viability (TGX 221 + Luminespib; first compound 0.08 µM) | relative viability (TGX 221 + Luminespib; first compound 0.253 µM) | relative viability (TGX 221 + Luminespib; first compound 0.8 µM) | relative viability (TGX 221 + Luminespib; first compound 2.53 µM) | relative viability (TGX 221 + Luminespib; first compound 8 µM) | relative viability (TGX 221 + Foretinib; first compound 0.08 µM) | relative viability (TGX 221 + Foretinib; first compound 0.253 µM) | relative viability (TGX 221 + Foretinib; first compound 0.8 µM) | relative viability (TGX 221 + Foretinib; first compound 2.53 µM) | relative viability (TGX 221 + Foretinib; first compound 8 µM) | relative viability ([1]; first compound 0.08 µM) | relative viability ([1]; first compound 0.253 µM) | relative viability ([1]; first compound 0.8 µM) | relative viability ([1]; first compound 2.53 µM) | relative viability ([1]; first compound 8 µM)
1 | NCI-H596 | 0.965 | 1.12 | 1.08 | 0.686 | 0.992 | 1.02 | 1.04 | 0.881 | 0.935 | 0.844 | 0.928 | 0.856 | 0.894 | 0.797 | 1.01 | 0.783 | 0.79 | 1.03 | 0.824
2 | NCI-H647 | 0.35 | 0.359 | 0.322 | 0.241 | 0.186 | 0.164 | 0.263 | 0.17 | 0.118 | 1.05 | 1.04 | 1.21 | 0.762 | 0.931 | 1.21 | 1.22 | 1.32 | 1.41 | 0.963
3 | NCI-H650 | 0.706 | 0.993 | 0.849 | 0.579 | 0.759 | 0.774 | 0.783 | 0.721 | 0.753 | 0.941 | 0.944 | 0.904 | 0.964 | 0.976 | 1.11 | 1.07 | 0.952 | 1.04 | 1.05
4 | NCI-H727 | 0.475 | 0.711 | 0.664 | 0.576 | 0.345 | 0.315 | 0.303 | 0.257 | 0.363 | 0.876 | 1.05 | 1.16 | 1.12 | 1.05 | 1.26 | 0.97 | 1.27 | 0.789 | 0.843
5 | NCI-H838 | 0.827 | 0.941 | 0.963 | 0.958 | 0.219 | 0.335 | 0.296 | 0.344 | 0.266 | 1.04 | 0.952 | 0.945 | 0.799 | 0.7 | 1.06 | 0.981 | 1.05 | 0.954 | 0.91
6 | NCI-H1355 | 0.689 | 0.853 | 0.674 | 0.575 | 0.713 | 0.59 | 0.674 | 0.588 | 0.621 | 0.994 | 0.814 | 0.984 | 0.849 | 0.788 | 0.895 | 1.01 | 1.12 | 0.951 | 0.703
7 | NCI-H1395 |  | 0.362 | 0.395 | 0.37 | 0.684 | 0.721 | 0.603 | 0.514 | 0.453 | 0.903 | 0.961 | 0.873 | 0.716 | 0.628 | 0.867 | 0.964 | 0.991 | 1.01 | 1
8 | NCI-H1437 | 1.12 | 0.977 | 1.16 | 1.01 | 1.09 | 1.11 | 1.16 | 1.1 | 0.929 | 1.26 | 1.21 | 1.25 | 1.19 | 1.06 | 1.24 | 1.32 | 1.36 | 1.37 | 1.1
